These results are taken from PMC11796366 (mBio, 2024).

The test concerns the target T1, BumS (WT BumS-Myc-6XHis) (Campylobacter jejuni, UniProt Z9AJU0DEG1).
T1 construct: gene CJJ81176_1484; second to penultimate codon, C-terminal Myc-6XHis tag kept (pBAD/Myc-HisA, pNR251), expressed in E. coli TOP10; cytoplasmic, N-terminal PAS domain (about residues 1-120)
T1 sequence (Z9AJU0DEG1 2-403): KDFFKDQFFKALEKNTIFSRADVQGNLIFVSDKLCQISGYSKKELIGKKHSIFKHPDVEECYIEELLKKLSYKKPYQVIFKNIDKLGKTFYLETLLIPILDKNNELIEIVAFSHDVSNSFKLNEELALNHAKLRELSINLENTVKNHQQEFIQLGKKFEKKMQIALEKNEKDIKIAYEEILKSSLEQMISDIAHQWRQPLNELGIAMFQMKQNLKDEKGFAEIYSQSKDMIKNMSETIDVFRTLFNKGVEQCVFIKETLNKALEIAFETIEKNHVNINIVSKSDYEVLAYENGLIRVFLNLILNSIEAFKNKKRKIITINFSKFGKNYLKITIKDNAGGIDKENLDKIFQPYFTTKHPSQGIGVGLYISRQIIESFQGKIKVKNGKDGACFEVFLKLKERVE
As to the kind of experiment: CD thermal melt at […] nm. Particulars: […]; […] HEPES, […] NaSO4, […] glycerol; […]-95 °C. Type of test: binding.

On to `CC(C)C(=O)O` [isobutyrate], for which the “Tm,app” value is “isobutyrate and isovalerate had a net destabilizing effect on the thermostability of BumS”.
